Laboratory results: US8513423B2 (Janssen Pharmaceutica, NV, priority 2010, dated 2013)
Read-outs that look alike come from different tables or passages of the source.

Experiments:
[1] = target: T1, mutant MGL (Homo sapiens, UniProt Q99685, L169S/L176S); assay: MGL ThermoFluor assay - mutant; type: binding
T1 construct: purified mutant MGL (mut-MGLL 11-313 L179S L186S)
T1 sequence (Q99685 1-303 L169S/L176S): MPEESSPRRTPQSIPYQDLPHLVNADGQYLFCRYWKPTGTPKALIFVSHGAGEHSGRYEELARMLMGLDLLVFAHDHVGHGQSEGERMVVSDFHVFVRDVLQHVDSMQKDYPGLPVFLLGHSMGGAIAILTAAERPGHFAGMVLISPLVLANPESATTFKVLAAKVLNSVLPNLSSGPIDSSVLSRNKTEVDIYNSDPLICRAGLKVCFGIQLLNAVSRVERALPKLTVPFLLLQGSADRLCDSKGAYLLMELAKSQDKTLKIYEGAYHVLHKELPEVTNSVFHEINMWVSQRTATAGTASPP
Method in brief: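 Thermal shift binding with 0.07 mg/ml L169S/L176S MGL, 100 μM 1,8-ANS, 200 mM NaCl, 0.001% Tween-20, 50 mM PIPES pH 7.0. Heated 40–90 °C at 1 °C/min, fluorescence (em 500 nm) tracked to give Tm; Kd fitted from 11-point concentration–Tm response, qKd when stocks quantified by qNMR.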

[2] = target: T2, MGL (Rattus norvegicus, UniProt Q8R431); assay: 2-AG accumulation assay in rat brain homogenate; type: biochemical; conditions: compound @1 μM, read-out: Rat Brain 2AG % VehCntrl (%) @1 μM
T2 construct: one g rat brain was homogenized; from tissue; host or cells: rat brain homogenate
T2 sequence (Q8R431 1-303): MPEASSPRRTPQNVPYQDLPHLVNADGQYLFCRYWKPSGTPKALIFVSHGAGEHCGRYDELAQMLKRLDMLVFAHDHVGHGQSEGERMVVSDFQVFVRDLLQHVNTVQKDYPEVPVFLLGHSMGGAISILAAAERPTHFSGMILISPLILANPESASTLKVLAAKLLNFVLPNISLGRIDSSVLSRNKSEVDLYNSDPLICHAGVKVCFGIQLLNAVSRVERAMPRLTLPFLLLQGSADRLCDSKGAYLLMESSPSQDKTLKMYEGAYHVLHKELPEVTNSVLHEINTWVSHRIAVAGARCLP
Method in brief: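 Rat brain homogenate was incubated with compound for 15 min at 37° C., after which CaCl2 was added to a final concentration of 10 mM. Incubation then continued for another 15 min at 37° C. in 5 mL total volume. Reactions were stopped by adding 6 mL of 2:1 chloroform/methanol. 2-AG in the organic phase was quantified by HPLC/MS.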

[3] = 0.07 mg/ml mutant MGL, pH=7.0, read-out: MGL mutant ThermoFluor Kd
[4] = compound concentration measured by qNMR, read-out: MGL mutant ThermoFluor qKd (using qNMR conc.)

Row | Compound | Kd [1, 3] [nM] | Kd [1, 4] [nM] | 2-AG accumulation, percent of vehicle control at 1 µM [2] [%]
1 | O=C(c1nccs1)N1CCC(C2CN(C(=O)c3sc4cc(C(F)(F)F)ccc4c3Cl)C2)CC1 [Cpd 29, 4-(1-{[3-Chloro-6-(trifluoromethyl)-1-benzothiophen-2-yl]carbonyl}azetidin-3-yl)-1-(1,3-thiazol-2-ylcarbonyl)piperidine] | 0.3 | 1.2 | 800
2 | Cc1c(C(=O)N2CC(C3CCN(C(=O)c4nccs4)CC3)C2)sc2cc(C(F)(F)F)ccc12 [Cpd 20, 4-(1-{[3-Methyl-6-(trifluoromethyl)-1-benzothiophen-2-yl]carbonyl}azetidin-3-yl)-1-(1,3-thiazol-2-ylcarbonyl)piperidine] | 1 | 1.3 | 728
